Laboratory results from patent EP0097070A2, “Process for preparing ellipticine derivatives, compounds so obtained and medicaments containing them” (ELF SANOFI, priority 1982, dated 1983).
Read-outs that look alike come from different tables or passages of the source.

Columns and labels:
[1] = test system: cellules tumorales L 1210; experiment: Antitumour effect: increase in life span of mice inoculated with L 1210 cells; type: in vivo, souris; conditions: 10^5 L 1210 cells i.p.; compound i.p. at dose DL0/2 (half the LD0 dose), 20 hours after inoculation; versus control animals; significant if above 25 p. 100
Description: Les cellules tumorales L 1210 sont inoculées par la voie intrapéritonéale à ces souris femelles OBA/2 d'un poids corporel moyen de 20g en une injection unique de 10^5 cellules; chez les animaux traités, le composé étudié est injecté à la dose de OL0/2 également par la voie intrapéritonéale 20 heures après la première injection des cellules L 1210.
L'effet antitumoral est apprécié par la détermination de l'augmentation de la durée de survie (ILS : increase in life Span) des animaux traités par rapport aux animaux témoins qui n'ont reçu que les cellules tumorales.
L'augmentation de la durée de survie est considérée comme significative lorsqu'elle est supérieure à 25 p. 100.
Les résultats obtenus sont consignés dans le tableau suivant qui indique pour les dérivés testés, le pourcentage d'augmentation de la durée de survie par rapport au témoin.

[2] = test system: cellules leucémiques L 1210; experiment: Cytotoxicity: growth inhibition of L 1210 cells in culture; type: cell-based; conditions: concentration giving 50 p. 100 inhibition of cell multiplication, 48 hours of culture, DMSO 1 p. 100 final, read-out: ID50 (the source's name)
Description: Les substances à étudier sont dissoutes dans du DMSO (1 p. 100 final) dont on a préalablement vérifié l'innocuité. Des quantités croissantes du produit à tester sont ajoutées au temps ? des numérations sont faites après 24 heures et 48 heures de contact. Des sérias témoins sont constituées avec ces quantités de DMSO équivalentes à celles des séries traitées. […] 5 Le pourcentage d'inhibition de la croissance cellulaire est déterminé par le rapport […] de croissance du témoin sur […] de croissance des essais pour différentes concentrations de produit à tester après 24 heures et 48 heures de culture Une relation dose effet est déterminée selon […] et WILCOXON (C. DUPONT, […].

[3] = test system: souris femelles de type DSA/2; conditions: mouse, in vivo, ip, 43200 min
Description: Cette étude, effectuée sur des souris femelles de type DSA/2 d'un poids corporel moyen de 20 g a permis de déterminer la DL0, qui représente la dose unique maximum administrable par une injection intrapéritonéale sans qu'aucune mort intervienne dans les 30 jours qui suivent l'administration du produit.

Compound	POURCENTAGE D'AUGMENTATION DE LA DUREE DE SURVIE (ILS) [1]	IC50 ([2]; Mus musculus, L1210)	DL0 [3]	IC50 [2]
Cc1c2cc[n+](C)cc2c(C)c2c1[nH]c1ccc(O)c(N=C(CC(C)C)C(=O)O)c12 [dérivé n° 1, acétate es méthyl-2 hydroxy-9 leucine-10, elliopticinium]	35 p. 100	280 nM	10 mg/kg	
Cc1c2cc[n+](C)cc2c(C)c2c1[nH]c1ccc(O)c(N=C(C(=O)O)C(C)C)c12 [dérivé n° 2, acétate de méthyl-2 hydroxy-9 valine 10 ellipticinium]	31,3 p. 100	310 nM	15 mg/kg	
Cc1c2cc[n+](C)cc2c(C)c2c1[nH]c1ccc(O)c(N=CC(=O)O)c12 [dérivé n° 3]		540 nM	20 mg/kg	
Cc1c2cc[n+](C)cc2c(C)c2c1[nH]c1ccc(O)c(N=C(Cc3c[nH]cn3)C(=O)O)c12 [dérivé n° 4]		2460 nM		
CC(=Nc1c(O)ccc2[nH]c3c(C)c4cc[n+](C)cc4c(C)c3c12)C(=O)O [dérivé n° 5, scétate ce méthyl-2 hydroxy-9 elanine-10 ellipricinium]		200 nM	20 mg/kg	
Cc1c2cc[n+](C)cc2c(C)c2c1[nH]c1ccc(O)c(N=C(CCC(=O)O)C(=O)O)c12 [dérivé n° 6, acétate de méthyl-2 hydroxy-9 glutamyle-10 ellipticinium]		23500 nM		
CC(=O)NC(CSc1c(O)ccc2[nH]c3c(C)c4cc[n+](C)cc4c(C)c3c12)C(=O)O (stereo not shown) [dérivé n° 8, Hexafluorophosphate de méthyl-2 hydroxy-9 N-acétyl cystéin-10 ellipticinium]		1120 nM		
Cc1c2cc[n+](C)cc2c(C)c2c1[nH]c1ccc(O)c(SCC(NC(=O)CCC(N)C(=O)O)C(=O)NCC(=O)O)c12 (stereo not shown) [dérivé n° 9, hexafluorophosphata de méthyl-2 hydroxy-9 glutathion-10 ellipticinium]		1610 nM		
Hexafluorophosphate de méthyl-2 hydroxy-8 méthylcystéine-10 ellipticinium [dérivé n° 7]				790 nM
acétate de méthyl -2 oxo -9 (guanylyl -5' -P)-10 ellipticinium [dérivé n° 13]				> 1000 nM
acétate de méthyl-2 oxo -9 (adényl -5'-P)-10 ellioticinium [dérivé n° 12]				> 800 nM
acétate de méthyl-2 oxo-9 adényl-10 ellipticinium [dérivé n° 10]				500 nM
acétate de méthyl-2 oxo-9 guanosyl-10 ellipticinium [dérivé n° 11]				760 nM
